Data on 4 compounds can be found in patent US9522192B2 (EPITECH GROUP S.r.l., priority 2012, dated 2016).

Series [1] is described as follows: Water solubility. In kind it is physicochemical.
Series [2] deals with carrageenan-induced paw oedema. The series can be described thus: Carrageenan-induced paw oedema, topical application. In kind it is in vivo, mice. The following applies: for anti-inflammatory effect at earlier times: 2 and 4 h after application; for anti-inflammatory activity (paw volume / paw oedema): topical on paw, dose equimolar to 1 mg PEA/paw, evaluated 2-96 h after carrageenan. Here is the method:
(§1) Male Swiss mice weighing 25 to 30 g were purchased from Harlan (Udine, Italy). They were housed in stainless steel cages in a room kept at 22±1° C. on a 12/12-h light/dark cycle. […] Each group of mice (n=6) was applied with 0.05 ml of ethanol solutions on dorsal surface of the left paw. After 5 minutes the animal received 50 μl of 1% λ-carrageenan in sterile saline injected into the treated paw. Absolute ethanol was used as vehicle in control animals. […] Paw oedema development was measured by a plethysmometer (Ugo Basile, Milan, Italy). The increase in paw volume was evaluated as the difference between the paw volume measured at each time point and the basal paw volume measured at time 0 (before drug application and carrageenan injection). Results are expressed as mean±S.E.M. of n experiments. All analyses were conducted using Graph-Pad Prism (GraphPad Software Inc., San Diego, Calif.). The significance of differences between groups was determined by Student t-test (for ex vivo experiments) and two-way analysis of variance (ANOVA) followed by Bonferroni post hoc tests for multiple comparisons (for in vivo experiments). Difference with P<0.05 (*) was considered statistically significant.
For orientation: The carrageenan paw model is a standard test of acute inflammation.

Series [3] is described as follows: Skin accumulation and PEA release after topical application on the paw (lipid extraction, HPLC).
Procedure: (§2) Frozen tissues samples were weighed and homogenized in a solution of methanol and a serine protease inhibitor, phenylmethylsulphonyl fluoride (PMSF, 1 mM). Then, homogenate tissues were subjected to methanol-chloroform-water (1:2:1, v/v/v) extraction. After centrifugation, the organic layer was carefully removed, transferred to another vial and purified by silica gel (60-Å, 230-400 mesh) micro-columns.
(§3) Molecules of interest were isolated by small-scale chromatography. Glass microcolumns (5 cm, ø 50 mm) were used. 1 ml of a mixture (1/1 v/v) of chloroform and silica gel (0.04-0.063 mm, 230-400 mesh, Macherey-Nagel) was used to load the columns. Samples were dissolved in 1 ml of chloroform and then loaded. Columns were washed with 1 ml of chloroform and 2 ml of chloroform/methanol (9/1 v/v), thus obtaining the fractions of interest that were collected and evaporated in vacuum. The extraction method was validated in blank experiments by treating skin with a known amount of each analyzed compound. Recovery percentages were calculated as well and they resulted higher than 85% for all the tested products.
(§4) HPLC analysis was performed on a Jasco apparatus (Jasco inc., Easton, Md., USA) composed by a quaternary gradient pump (PU 2089 Plus), a 25 μl Rheodyne injection valve and a multi-wave length UV detector (MD 2010 Plus). […] The specificity (absence of interfering peak from skin samples) was assessed as well.
For series [4], the system named is carrageenan-induced hyperalgesia. Put plainly: Mechanical hyperalgesia after λ-carrageenan injection into the paw, topical application. Type of series: in vivo, mice. The following applies: for anti-hyperalgesic effect at earlier times: 2 and 4 h after application; for anti-hyperalgesic activity (paw withdrawal latency): topical on paw, dose equimolar to 1 mg PEA/paw, evaluated 2-96 h after carrageenan. Here is the method:
as §1, with “Mechanical hyperalgesia” for “Paw oedema development”, “assessed” for “measured”, “measuring of latency (s) to withdraw” for “a plethysmometer (Ugo Basile, Milan, Italy). The increase in paw volume was evaluated as the difference between”, “from a constant mechanical pressure exerted onto its dorsal surface. A 15-g calibrated glass cylindrical rod (diameter=10 mm) […] to a conical point (diameter=3 mm) was used to exert the mechanical force. The weight was suspended vertically between two rings attached to a stand and was free to move vertically. A cut off” for “volume measured at each”, “of 90 sec. was used.” for “point and the basal paw volume measured at time 0 (before drug application and carrageenan injection).”

The conditions of series [5]: mouse, in vivo.
Procedure: as §2, §3, §4
The mark [6] stands for this setting: after local application, 1.6 mg/paw.
Setting [7] is: after local application, 1.72 mg/paw.
Setting [8] is: 6-96 h after topical application.

Read-outs that look alike come from different tables or passages of the source.

With “N-[2-methoxypolyethylene glycol(5000)-O-carbonyl-oxy-ethyl]-palmitamide [Example 7]”, in series [1], the Water solubility is more than 10000 µg/mL.

For the compound `CCCCCCCCCCCCCCCC(=O)NCCOC(=O)CCC(=O)OCCOCCO` [derivative 8a, N-Palmitoylethanolamine-O-(succinyl(diethylene glycol))], in series [2], the “anti-inflammatory effect at earlier times” value is listed as “No effect” and the “anti-inflammatory activity (paw volume / paw oedema)” value is recorded as “significant”. Besides, the “anti-inflammatory activity lasting up to” value in series [2] (setting [6]) is reported as “up to 72 h”. In addition, in series [3] (after topical application), the “PEA release sustained / maintained up to” value is recorded as “up to 72 hours”; the “accumulation in the skin” value is “accumulate in the skin and release PEA”; the “kinetic release of PEA in the skin” value was “faster release”; the “start of PEA release (relevant amount of PEA detectable)” value turned out to be 2 h. Also, the “total amount accumulated in the skin (PEA+derivative) relative to PEA alone” value in series [3] (whole period of analysis) is approximately 10 times. For the same compound, in series [4], the “anti-hyperalgesic effect at earlier times” value is reported as “No effect” and the “anti-hyperalgesic activity (paw withdrawal latency)” value is reported as “significant”. In series [4] (setting [6]), the “anti-hyperalgesic activity lasting up to” value was “up to 72 h”.

With `CCCCCCCCCCCCCCCC(=O)NCCOC(=O)CCC(=O)OCCOCCOCCO` [derivative 8b, N-Palmitoylethanolamine-O-(succinyl(triethylene glycol))], the “accumulation in the skin” value in series [5] is “accumulate in the skin and release PEA”. The “time from which anti-inflammatory activity is significant” value in series [2] (setting [7]) was not below 2 days. For the same compound, the “anti-inflammatory activity (paw volume / paw oedema)” value in series [2] is listed as “significant”. Further, the “time from which anti-hyperalgesic activity is significant” value in series [4] (setting [7]) is not below 2 days. Besides, the “anti-hyperalgesic activity (paw withdrawal latency)” value in series [4] is reported as “significant”.

Take `CCCCCCCCCCCCCCCC(=O)NCCO` [PEA, Palmitoylethanolamide, reference compound]: in series [2], the “anti-inflammatory effect at earlier times” value was “significant” and the “anti-inflammatory activity (paw volume / paw oedema)” value is on record as “markedly reduced”. For the same compound, the “anti-inflammatory effect at later times” value in series [2] (setting [8]) is “no effect”. For the same compound, the “PEA levels in the skin” value in series [3] (after 24 h) was “return to baseline”. Further, in series [4], the “anti-hyperalgesic effect at earlier times” value is on record as “significant” and the “anti-hyperalgesic activity (paw withdrawal latency)” value was “markedly reduced”. Besides, the “anti-hyperalgesic effect at later times” value in series [4] (setting [8]) was “no effect”.
